Test results: PubChem BioAssay AID720495 (Broad Institute, 2013)
Results filed as inconclusive are left out. The source made the active and inactive calls. No rule for the calls is given here.

These molecules were tested against Protein AF-9 (Homo sapiens) (UniProt P42568) (assay: inhibitors of AF4-AF9 protein interaction, dose response, biochemical, cherry-picked samples, plate reader (AID 720495)). Conditions: biochemical protein-protein interaction assay.
Sequence of Protein AF-9 (Homo sapiens) (P42568 whole entry, looked up): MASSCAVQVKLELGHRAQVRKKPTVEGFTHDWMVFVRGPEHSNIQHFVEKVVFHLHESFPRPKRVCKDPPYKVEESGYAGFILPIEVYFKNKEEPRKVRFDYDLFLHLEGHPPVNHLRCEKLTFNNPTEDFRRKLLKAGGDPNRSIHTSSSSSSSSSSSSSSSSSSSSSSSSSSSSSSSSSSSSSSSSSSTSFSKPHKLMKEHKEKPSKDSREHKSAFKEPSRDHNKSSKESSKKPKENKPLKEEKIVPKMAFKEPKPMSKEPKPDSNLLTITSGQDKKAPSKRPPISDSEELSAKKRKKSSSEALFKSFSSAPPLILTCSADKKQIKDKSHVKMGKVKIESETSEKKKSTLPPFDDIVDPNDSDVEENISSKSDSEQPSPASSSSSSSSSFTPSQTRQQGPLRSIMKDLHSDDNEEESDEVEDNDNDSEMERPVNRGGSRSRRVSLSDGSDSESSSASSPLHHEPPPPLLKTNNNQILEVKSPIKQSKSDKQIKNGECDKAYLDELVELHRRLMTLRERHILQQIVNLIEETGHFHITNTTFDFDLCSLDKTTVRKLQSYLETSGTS

| Structure (SMILES) | AC50 [µM] |
| --- | --- |
| COc1cccc(CNCCc2c[nH]c3ccccc23)c1OCc1ccccc1 | 11.5 |
| COc1ccc(C(CCNCc2ccc(N(C)C)cc2)C(C)C)cc1 (stereo not given) | 2.88 |
| Cc1cccc(NC2=C(NCCO)C(=O)c3ccccc3C2=O)c1 | 3.55 |
| C[C@@H]1CN([C@@H](C)CO)C(=O)c2cc(N(C)C)ccc2O[C@@H]1CN(C)Cc1ccc(-c2ccccc2)cc1 | 8.93 |
| O=C1C(NS(=O)(=O)c2ccc(Cl)cc2)=C(N2CCCCC2)C(=O)c2ccccc21 | < 0.08 |
| CCN(CC)c1ccc(CNc2nc3ccccc3n2CCN2CCCCC2)cc1 | 5.83 |
| CCN(Cc1ccccc1)c1ccc(/C=N/N=C(N)N)cc1 | 4.43 |
| N=C1C=CC(=C(c2ccc(N)cc2)c2ccc(N)cc2)C=C1 | 6.08 |
| C[C@@H]1NC(=O)N[C@@H]1CCCCCC(=O)O | < 0.08 |
| O=C1C(Cl)=CC(=Nc2ccc(O)cc2)C=C1Cl | 11.4 |
| C#CCOCCOCCOCCNc1nc(N2CCN(C(=O)[C@H](CCCCN)n3cc(CN)nn3)CC2)nc(N2CCN(C(=O)[C@H](CCCN=C(N)N)n3cc(C(N)[C@H](C)CC)nn3)CC2)n1 (stereo not given in full) | 2.81 |
| Oc1c(C(c2ccccn2)N2CCCCC2)cc(Cl)c2cccnc12 (stereo not given) | 1.84 |
| CN1CCN(CCCCOc2ccccc2C=O)CC1 | 10.6 |
| O=c1[nH]c2ccccc2n1C1CCN(C(c2nnnn2C2CCCCC2)C2CC2)CC1 (stereo not given) | 11.1 |
| COc1ccc2[nH]c(C)c(CCNCc3cn(C)c4ccccc34)c2c1 | 6.85 |
| Cc1cccc(N=NC(=S)NNc2cccc(C)c2)c1 | 0.212 |
| CN(CCc1ccccc1)C(=O)c1ccc(NC(=O)Cc2ccc(NC(=O)C3CCN(C(=O)C4CCCC4)CC3)cc2)cc1 | < 0.08 |
| C[C@@H]1CCCCO[C@H](CN(C)Cc2ccc(Cl)c(Cl)c2)[C@@H](C)CN([C@H](C)CO)C(=O)c2cc(N(C)C)ccc2O1 | 10.1 |
| COc1cc(N(C)C)ccc1C=c1c2ccccc2n2c1cc(-c1ccccc1)[n+]2C | 1.88 |

| Structure (SMILES) | AC50 [µM] |
| --- | --- |
| COc1cc2c(c(OC)c1OC)-c1ccc(O)c(=O)cc1[C@@H](N)CC2 | 2.3 |
| COc1ccc(OC)c(Nc2c3ccccc3nc3ccccc23)c1 | 7.11 |
| O=C(c1ccc(-c2cc(O)c3ncccc3c2)cc1)N1CCNCC1 | 0.426 |
| COc1cc(Nc2c3ccccc3nc3ccccc23)cc(OC)c1OC | 0.234 |
| O=C(COc1ccc2ccc(=O)oc2c1)Nc1ccc(N2CCCCC2)cc1 | 9.56 |
| CN1CCN(/N=C/c2ccc(-c3ccc([N+](=O)[O-])cc3Cl)o2)CC1 | 9.35 |
| O=C1c2cccc(NCCNCCO)c2C(=O)c2cccc(NCCNCCO)c21 | 6.88 |
| CCN(CC)c1ccc(/C=C/c2ccc3ccc(OC)cc3[n+]2CC)cc1 | 2.36 |
| CN(C)CCCNC(=O)c1ccc(-c2cc(O)c3ncccc3c2)cc1 | 0.693 |
| Cc1c(P(=S)(c2ccccc2)c2ccccc2)[n+]2ccccc2n1C | 7.98 |
| C[C@H](CO)N1C[C@H](C)[C@@H](CN(C)Cc2ccc(Oc3ccccc3)cc2)Oc2ccc(N(C)C)cc2C1=O | 10.7 |
| Brc1ccc(N/N=C(/N=Nc2nn[nH]n2)c2ccccc2)cc1 | 5.84 |
| COc1cc(C2CC(=O)Oc3c(C(CCN4CCOCC4)c4ccc(N(C)C)cc4)c(OC)cc(OC)c32)cc(OC)c1OC (stereo not given) | 1.55 |
| COc1ccc2[nH]c3c(C)c4cc[n+](C)cc4c(C)c3c2c1 | 3.07 |
| CN1CCN(C(c2ccc(C(F)(F)F)cc2)c2cc(Cl)c3cccnc3c2O)CC1 (stereo not given) | 1.54 |
| C#CCOCCOCCOCCNc1nc(N2CCN(C(=O)[C@H](CCCN=C(N)N)n3cc(C(N)[C@@H](C)CC)nn3)CC2)nc(N2CCN(C(=O)[C@H](CCCCN)n3cc([C@@H](N)[C@H](C)CC)nn3)CC2)n1 (stereo not given in full) | 3.6 |
| O=C(N/N=C/c1c(O)ccc2ccccc12)c1ccc[n+](CCO)c1 | 0.257 |
| Cc1ccnc(NC(c2cccnc2)c2ccc3cccnc3c2O)c1 (stereo not given) | 0.808 |
| CN(C)CCNC(=O)c1cccc(-c2cnc3c(NC=O)cc(/C=C/c4ccccc4)cn23)c1 | 0.523 |

Same assay, conditions: biochemical protein-protein interaction assay, at 10 µM (top of the series)

| Structure (SMILES) | activity change, negative = inhibition |
| --- | --- |
| Nc1[nH]n(-c2ccccc2)c(=O)c1N=Nc1ccc2c(c1)OCCO2 | inactive |
| Cc1cc(N=Nc2ccc(Cl)cc2)cc(CN2CCCC2)c1O | inactive |
| Cc1ccc(-c2cc(-c3ccc(C)cc3)[n+](-c3ccc(C(=O)[O-])cc3)c(-c3ccc(C)cc3)c2)cc1 | inactive |
| CCN1CCN(c2ccc(N)c(C)c2)CC1 | inactive |
| C[C@@H]1CN([C@@H](C)CO)C(=O)Cc2cc(N(C)C)ccc2O[C@H]1CN(C)Cc1ccc(Cl)c(Cl)c1 | inactive |
| O=C(NC1CCCCC1)C(c1cccnc1)N(C(=O)CCl)c1cccc(Cl)c1 (stereo not given) | inactive |
| COc1ccc(N2CCN(C3CCCN(S(=O)(=O)c4ccc(C)cc4C)C3)CC2)cc1 (stereo not given) | inactive |
| O=[N+]([O-])c1cc(/C=N/Nc2nc3ccccc3[nH]2)c(O)cc1O | inactive |
| COc1ccc(N2CCC(CNC(=S)Nc3ccc(C)cc3C)C2)cc1 (stereo not given) | inactive |
| COc1ccc2ccccc2c1-c1sc(Nc2ccccc2)n[n+]1-c1ccc(F)cc1 | inactive |
| CC1=NN(c2ccccc2)C(=O)/C1=C/C=C/c1ccc(N(C)C)cc1 | inactive |
| O=C(C[C@H]1CC[C@@H]2[C@H](COC[C@@H](O)CN2S(=O)(=O)c2ccc(F)cc2)O1)NCC1CCCCC1 | inactive |
| CC(C)C1CC(CCNCc2ccc(N(C)C)cc2)(c2ccccc2)CCO1 (stereo not given) | inactive |
| Cc1cc(/C=N/n2c(COc3ccccc3C)nc3ccccc3c2=O)c(O)c([N+](=O)[O-])c1 | inactive |
| O=c1c2ccccc2nc(/C=C/c2cccnc2)n1Cc1ccccc1 | inactive |
| Cc1[nH]n(-c2ccccc2)c(=O)c1N=Nc1c(O)cc(S(=O)(=O)N(C)C)c2ccccc12 | inactive |
| COc1ccc(NC2CCCN(Cc3cccc4cnccc34)C2)cc1OC (stereo not given) | inactive |
| COc1ccc2sc(N(CCCN(C)C)C(=O)c3ccc(S(=O)(=O)N(C)C4CCCCC4)cc3)nc2c1 | inactive |
| CCc1ccc(OCCNc2cc(N3CCNC(C)C3)ccc2[N+](=O)[O-])cc1 (stereo not given) | inactive |
| CNC(=S)N1N=C(c2ccc(C)cc2)CC1c1ccc(N(C)C)cc1 (stereo not given) | inactive |
| c1ccc(C2=Nc3c(ccc4ccccc34)C(c3ccncc3)=NN2)cc1 | inactive |
| Cc1cc2c(cc1C)N[C@]1(C[C@H]3CCCC(=O)N4CC[C@@H](C1)[C@@H]34)C(=NC(C)(C)CC(C)(C)C)N2 | inactive |
| C[C@H](CO)N1C[C@H](C)[C@H](CN(C)Cc2ccc(Cl)c(Cl)c2)Oc2ccc(N(C)C)cc2C1=O | inactive |
| CN(C)c1ccc(NC(=S)NC23CC4CC(CC(C4)C2)C3)cc1 | inactive |
| Cn1cc(C(=O)N/N=C/c2c(O)ccc3ccccc23)ccc1=O | inactive |
| Cc1cc(C)cc(OCC(O)CN2CCC(CN3C(=O)c4cccc5cccc(c45)C3=O)CC2)c1 (stereo not given) | inactive |

| Structure (SMILES) | activity change, negative = inhibition |
| --- | --- |
| COc1cc(OC)c2c(-c3ccccc3)cc(=O)oc2c1C(CCN1CCOCC1)c1ccc(N(C)C)cc1 (stereo not given) | inactive |
| O=C(N/N=C/c1sc(N2CCCCC2)nc1-c1cccs1)C1CC1 | inactive |
| Oc1cc2c(cc1O)C1c3ccc(O)c(O)c3OCC1(O)C2 (stereo not given) | inactive |
| COc1cc(O)c(C(CCN2CCN(c3ccccc3)CC2)c2ccc(N(C)C)cc2)c(OC)c1 (stereo not given) | inactive |
| Cc1ccc(NC(=S)N/N=C/c2ccc([N+](=O)[O-])s2)cc1 | inactive |
| NC(=O)C1CCN(C2=C(NS(=O)(=O)c3ccc(Br)cc3)C(=O)c3ccccc3C2=O)CC1 | inactive |
| O=C(NCCCN1CCCC1=O)C1CCN(S(=O)(=O)c2cccc(C(F)(F)F)c2)CC1 | inactive |
| COc1cc(/C=N/N=C(N)N)ccc1OCc1ccc(Cl)cc1 | inactive |
| CCC(=O)N(C)C[C@H]1Oc2cc(C#Cc3ccncc3)ccc2S(=O)(=O)N([C@@H](C)CO)C[C@@H]1C | inactive |
| Cn1cc(CN2CCC(C(=O)NC(c3ccc(F)cc3)c3ccc4ccccc4n3)CC2)c2ccccc21 (stereo not given) | inactive |
| c1cc2c3c(cccc3c1)NC(c1ccc3c(c1)OCO3)N2 | inactive |
| Cc1c(C)n(Cc2ccccc2)c2ccc(C(=O)OCCN(C)C)cc12 | inactive |
| CN(C)CCCN1c2ccccc2Sc2ccc(Cl)cc21 | inactive |
| Fc1ccc(C(c2ccc(F)cc2)N2CCN(C/C=C/c3ccccc3)CC2)cc1 | inactive |
| CCN1CCN(Cc2ccc(NC(=O)c3cc(NC(=O)c4nccnc4N)cc(OC)c3)cc2C(F)(F)F)CC1 | inactive |
| CCN(CC)c1ccc(CN2CCC(C(=O)NCc3ccc(C)cc3)CC2)cc1 | inactive |
| Cc1ccc2c(c1)c1c3n2CCCN(Cc2ccccc2)C3CCC1 (stereo not given) | inactive |
| CN(C)c1ccc(NC2=C(Cl)C(=O)c3ccccc3C2=O)cc1 | inactive |
| CNC(=S)N1N=C(c2ccc(Br)cc2)CC1c1ccc(N(C)C)cc1 (stereo not given) | inactive |
| Cn1ccc2c(/C=C/c3ccc(F)cc3)cc3c(c21)C1CCC3C1 (stereo not given) | inactive |
| O=C(N/N=C/c1cc(Cl)cc([N+](=O)[O-])c1O)c1cccc(S(=O)(=O)N2CCOCC2)c1 | inactive |
| Cc1cccc(-c2ccc3[nH]c4c(c3c2)CCN2C[C@H]3[C@H](C)ON(C)[C@H]3C[C@@H]42)c1 | inactive |
| CSCCC(c1nnnn1C1CCCCC1)N1CCC(n2c(=O)[nH]c3ccccc32)CC1 (stereo not given) | inactive |
| CCOC(=O)C1CCCN(C2=C(NS(=O)(=O)c3ccc(Br)cc3)C(=O)c3ccccc3C2=O)C1 (stereo not given) | inactive |
| COC(=O)C1=CC(C(=O)c2cccs2)=NN(c2ccc(OC)cc2)C1C(=O)OC (stereo not given) | inactive |
| CCN1C(=O)/C(=C\C(=O)c2cccs2)c2cc(Br)ccc21 | inactive |
